Patent US12150750B2, “D-glucose and its analogs as tracers to assess the glucose transporter function on blood-cerebrospinal fluid barrier and the functioning of the brain lymphatic system” (The Johns Hopkins University, priority 2020, dated 2024)

Key:
[1] = Dynamic glucose enhanced (DGE) onVDMP MRI at 11.7 T of glucose uptake in brain parenchyma and CSF of WT and Tau mice; assay type: in vivo, mouse; conditions: for fitted ADGE (amplitude of glucose uptake at equilibrium) of parenchyma: i.v. bolus 0.15 mL 50% glucose, n=4; for half-life: female, mouse, 0.15 mL of 50% w/w glucose (0.5 g/mL)
Protocol: (§1) The study was carried out under the approval of Johns Hopkins University animal care and use. Four female Tau4RΔK (Tau) mice (49) with an age of 7-8 months and four female age-matched C57BL/6J mice were used for the AD study. Two age-matched BALB/c mice were used for the validation of glucose uptake using an MRS method. The Tau mice were bred at Johns Hopkins University and the onset of tau tangles starts at the age of six months (49). A catheter was placed in the tail vein for glucose administration before placing the animal in the scanner.
All MRI experiments were performed on a horizontal bore 11.7 T Bruker Biospec system (Bruker, Ettlingen, Germany) equipped with actively shielded gradients, with a maximum strength of 74 Gauss/cm. A 72 mm quadrature volume resonator was used as a transmitter and a 2×2 mouse phased array coil for acquisition. All animals were anesthetized using 2% isoflurane in medical air, followed by 1% to 1.5% isoflurane for maintenance during the MRI scan. The mouse head was positioned using a bite bar and two ear pins. During the MRI scan, mice were placed on a water-heated animal bed. Respiratory rate was monitored via a pressure sensor (SAII, Stony Brook, NY, USA) and maintained at 40-60 breaths per minute. The B0 field over the mouse brain was adjusted using field-mapping and second-order shimming.
The MRI sequence used for monitoring the glucose uptake in brain and CSF was onVDMP, illustrated in (a) of FIG. 3. The duration of each binomial pulse pair was 3 ms, and the length of a saturation module was proportional to the total number of binomial pulse pairs. Two independent onVDMP sequences with different saturation-module lengths (i.e. 36 ms and 300 ms) were repeated in an interleaved fashion to detect the glucose uptake in brain parenchyma and CSF, respectively. Other imaging parameters were: TR/TE=2.5 s/5 ms, RARE factor=23, slice thickness=1 mm, a matrix size of 196×128 within a FOV of 20×10 mm^2. The scan time for each onVDMP experiment was fixed to 7.5 s and the dynamic glucose enhanced (DGE) images were acquired continuously for 27.5 min. A bolus of 0.15 mL 50% w/w glucose (0.5 g/mL, clinical-grade dextrose, Hospira, Lake Forest, IL) was given at 10th min of the dynamic experiment through the tail vein using a syringe pump (Harvard Apparatus Holliston, MA, USA). The first five minutes of dynamic scan were used as dummy scans to make sure system reached steady-state.
According to R1ρ theory (50-52), the water signal intensity (S) after applying an onVDMP sequence is expressed in some embodiments as: S=S0e^−T^onvDMP^R^1ρ (1)
where S0 is the water signal intensity without saturation. Because ΔR1ρ induced by glucose infusion is relatively small (41-43,53,54), the normalized change of water signal intensity ΔZ is approximated in some embodiments as: ΔZ=(Sbase−S)/Sbase=1−e^−T^onvDMP^ΔR^1ρ≈TonVDMPΔR1ρ (2)
where Sbase is the referenced water signal intensity. In this study, the average of water signal intensity before glucose infusion was used as Sbase. The dynamic images are calculated in some embodiments by averaging N images within a certain time period (55): Save=Σn=1^NΔZ(n)/N (3)
To correct for motion between DGE images, image registration was applied using Medical Imaging Registration Toolbox (MIRT) (56). The regions of interest (ROIs) were selected by hand with the reference to mouse brain atlas (https://mouse.brain-map.org).
The glucose uptake curves measured by DGE MRI are fitted using exponential functions in some embodiments to allow quantitative comparison: ΔDGE(t)=ADGE(1−e^−t/T^u,DGE) (4)
where ΔDGE(t) is the DGE signal difference determined by onVDMP MRI. Tu,DGE is the glucose uptake lifetime. The half-life time of glucose uptake was calculated by the equation: Thalf=Tu*0.6931. ADGE represents the amplitudes of glucose uptake at equilibrium measured by onVDMP. […]

[2] = Validation of glucose uptake in brain using an MRS method; assay type: in vivo; conditions: mouse, intravenous, BALB/c mice, read-out: half-life time of glucose uptake measured by MRS
Protocol: as §1

[3] = DGE onVDMP MRI at 3 T of D-glucose uptake and clearance in CSF of WT and APP/PS1 mice; assay type: in vivo, mouse; conditions: for ΔS at 2 min (CSF DGE signal difference) / ΔS at 30 min (CSF DGE signal difference): n=5
From the text: All animal experiments were approved by the Animal Ethics Committee and followed the institutional guidelines of Institutional Laboratory Animal Research Unit of City University of Hong Kong. […] APP/PS1 mice are double transgenic mice expressing a chimeric mouse/human amyloid precursor protein (Mo/HuAPP695swe) and a mutant human presenilin 1 (PS1-dE9), both directed to CNS neurons. Both mutations are associated with early-onset AD. Another six 6M WT mice were used for the control experiments.
The onVDMP sequence diagram is shown in (a) of FIG. 3. By setting a different binomial pulse number N, the saturation length is adjusted to image the parenchyma and CSF, respectively. In this study, the saturation length was set to 60 ms for imaging parenchyma and 900 ms for imaging CSF. DGE experiments on both parenchyma and CSF images are acquired in an alternate way in some embodiments during one acquisition, similar to the experiments in example 1.
When carrying out the MRI experiments on mice, anesthesia was induced and maintained using isoflurane at 2% and 1.5%, respectively. The isoflurane was mixed with 90% oxygen generated by an oxygen concentrator. The flow rate of oxygen generator was set to 2 liter per minute (LPM) and kept unchanged during the whole experiment. Mice were placed in a horizontal bore 3 T Bruker BioSpec animal scanner (Bruker, Germany). A 82-mm-diameter quadrature coil and a 23-mm-diameter mouse brain surface coil were used for transmitting and receiving signal, respectively. A catheter was placed in the tail vein for glucose administration before placing the animal in the scanner. A bolus of 0.15 mL filtered 50% D-glucose was injected into the mouse body through the tail vein over one minute (speed: 0.15 ml/min) using a MRI-compatible syringe pump (Harvard Apparatus). Mouse body temperature was maintained at 37° C. using a warming pad. Respiration and body temperature were continuously monitored using an MRI-compatible monitor system (SA Instruments, Inc). Before DGE acquisition, the B0 field over the mouse brain was shimmed using field-mapping and second-order shimming. The read-out module was rapid acquisition with refocused echoes (RARE) with TR/TE=2.5 s/4.7 ms, RARE factor=32, centric encoding, slice thickness=2 mm, a matrix size of 96×96 within a field of view (FOV) of 20×20 mm^2, resulting in a time resolution of 15 s for each pair of images (7.5 s for parenchyma and 7.5 s for CSF). A total number of 550 images were acquire for each DGE module, thus leading to a total scanning time of 1 h8 min 45 s. The glucose injection was started at 8 min 45 s and lasted for 1 min. […] The image slice was positioned based on a collected sagittal image of the mouse brain with the position of the coronal image slice set to −1.4 mm with respect to the anterior commissure (AC).
All image processing and data analyses were performed using custom written code in MATLAB (R2018b, MathWorks, USA). When calculating DGE kinetic curves, baseline signal Sbase was generated by averaging the 30 baseline images. Since the total number of DGE images was large ([…] for each mouse), every set of 15 images were averaged to visualize the dynamic process of glucose changes. Then Eq. 5 was used for each time point to construct the DGE kinetic curves after glucose administration.
The DGE data of CSF were fitted by a simple gamma variate model(66,67) for only the first 20 mins after glucose injection, giving an uptake rate and an estimate of the initial rate of clearance:
where A is an amplitude modulation parameter, μin represents the glucose uptake rate, μout represents the initial rate of clearance. […] The maximum signal that CSF DGE reached is directly extracted in some embodiments after fitting as Smax=max(ΔS′CSF(t)). For both parenchymal and CSF DGE curves, fitting was achieved using the built-in nonlinear least-squares curve fitting function in MATLAB. […]

[4] = literature reference 28; cited from earlier work

## O=C[C@H](O)[C@@H](O)[C@H](O)[C@H](O)CO [D-glucose]
[1]; Tau4RΔK mice, cortex
  fitted ADGE (amplitude of glucose uptake at equilibrium) of parenchyma: 1.70±1.33%
[1]; Tau mice, CSF
  CSF ADGE: 6.72±2.22%
  time at which DGE signal reached a plateau: around 25 min
[1]; Tau mice, cortex
  glucose uptake in the cortex (DGE signal intensity): 1.6±1.3%
[1]; WT mice (C57BL/6J), cortex
  fitted ADGE (amplitude of glucose uptake at equilibrium) of parenchyma: 5.42±0.70%
[1]; WT mice, CSF
  CSF ADGE: 7.03±2.12%
  drop of DGE signal from the peak value at 27.5 minutes: about 1.5±0.5%
  peak value of DGE signal: 6±0.3%
  time at which DGE signal plateaued: around 10 min
  time at which DGE signal reaches a maximum before decay: around 15 minutes
[1]; WT mice, cortex
  glucose uptake in the cortex (DGE signal intensity): 4.3±1.3%
[1]; C57BL/6J, brain parenchyma (cortex), iv, WT mice, cortex, read-out: uptake half-life time of parenchyma
  half-life: 4.71 ± 1.03 min
[1]; C57BL/6J, intravenous, brain tissue of WT mice, as restated in discussion, read-out: half-life time of glucose uptake obtained by the onVDMP method
  half-life: 4.71 ± 1.18 min
[1]; C57BL/6J, iv, WT mice, CSF, read-out: uptake half-life time of CSF
  half-life: 1.24 ± 0.24 min
[1]; Tau4RΔK, brain parenchyma (cortex), iv, Tau mice, cortex, read-out: uptake half-life time of parenchyma
  half-life: 5.14 ± 0.3 min
[1]; Tau4RΔK, iv, Tau mice, CSF, read-out: uptake half-life time of CSF
  half-life: 7.8 ± 1.14 min
[1]; parenchymal ROI (cortex), both WT and Tau mice
  time at which glucose uptake reaches a plateau: about 20 min
[2]
  half-life: 4.16 ± 0.69 min
[3]; APP/PS1 mice 6M
  ΔS at 2 min (CSF DGE signal difference): 12.70±2.30%
  ΔS at 30 min (CSF DGE signal difference): 11.84±4.13%
[3]; WT mice 6M, i.v. bolus 0.15 mL 50% D-glucose
  ΔS at 2 min (CSF DGE signal difference): 14.56±2.86%
[3]; WT mice 6M
  ΔS at 30 min (CSF DGE signal difference): 3.18±2.95%
[3]; mouse, in vivo
  D-glucose uptake rate μin, WT versus APP/PS1: no significant difference
  Smax (maximum CSF DGE signal), APP/PS1 versus WT: significantly lower
  washout initial rate μout of D-glucose in CSF, APP/PS1 compared to WT: significantly slower
[4]
  half-life time of glucose uptake, previous 13C MRS measurements: 5.10 ± 0.11 min
